Data published in PMC9843824 (Neuropharmacology, 2022).
“And” between values parts separate entries of the source, which are not always exact repeats. Equal entries are not always repeated. Where two headings read alike, the source gives them in different places. Values belong to the compound of their own block, whether it stands above or below them.

Assays:
[1] = system: neural activity regulated, high affinity MeAIB/Gln transport in mature rat hippocampal neurons; assay type: cell-based; conditions: for Block of activity regulated MeAIB transport, screen 2 / Result of screen 2 (block of MeAIB transport): compound 10 μM, 14C-MeAIB 5.4 μM; for IC50: read-out: IC50, inhibition of Ca2+-regulated (spontaneous, activity regulated) MeAIB transport, hippocampal neurons DIV 19–21, 2 min preincubation, 37 °C; for Mode of inhibition of Ca2+-regulated MeAIB transport: Michaelis-Menten kinetic analysis; for Reduction of initial velocity (V, Vmax) of MeAIB transport / Vmax of Ca2+-regulated MeAIB transport in presence of inhibitor: inhibitor 1 μM; for Vmax of Ca2+-regulated MeAIB transport in presence of inhibitor: control 107 ± 9
[2] = physchem; assay type: physicochemical
[3] = in vitro; assay type: in vitro ADME; conditions: rat, plasma
[4] = system: KA rat model of TLE; conditions: for Neuroprotection, FJB staining in hippocampus at 3 d: 10 mg/kg i.p. 1 h and 4 h after SE
[5] = target: NaV1.2 (Mus musculus, UniProt B1AWN6); assay type: cell-based
Chain of NaV1.2 (B1AWN6 whole entry): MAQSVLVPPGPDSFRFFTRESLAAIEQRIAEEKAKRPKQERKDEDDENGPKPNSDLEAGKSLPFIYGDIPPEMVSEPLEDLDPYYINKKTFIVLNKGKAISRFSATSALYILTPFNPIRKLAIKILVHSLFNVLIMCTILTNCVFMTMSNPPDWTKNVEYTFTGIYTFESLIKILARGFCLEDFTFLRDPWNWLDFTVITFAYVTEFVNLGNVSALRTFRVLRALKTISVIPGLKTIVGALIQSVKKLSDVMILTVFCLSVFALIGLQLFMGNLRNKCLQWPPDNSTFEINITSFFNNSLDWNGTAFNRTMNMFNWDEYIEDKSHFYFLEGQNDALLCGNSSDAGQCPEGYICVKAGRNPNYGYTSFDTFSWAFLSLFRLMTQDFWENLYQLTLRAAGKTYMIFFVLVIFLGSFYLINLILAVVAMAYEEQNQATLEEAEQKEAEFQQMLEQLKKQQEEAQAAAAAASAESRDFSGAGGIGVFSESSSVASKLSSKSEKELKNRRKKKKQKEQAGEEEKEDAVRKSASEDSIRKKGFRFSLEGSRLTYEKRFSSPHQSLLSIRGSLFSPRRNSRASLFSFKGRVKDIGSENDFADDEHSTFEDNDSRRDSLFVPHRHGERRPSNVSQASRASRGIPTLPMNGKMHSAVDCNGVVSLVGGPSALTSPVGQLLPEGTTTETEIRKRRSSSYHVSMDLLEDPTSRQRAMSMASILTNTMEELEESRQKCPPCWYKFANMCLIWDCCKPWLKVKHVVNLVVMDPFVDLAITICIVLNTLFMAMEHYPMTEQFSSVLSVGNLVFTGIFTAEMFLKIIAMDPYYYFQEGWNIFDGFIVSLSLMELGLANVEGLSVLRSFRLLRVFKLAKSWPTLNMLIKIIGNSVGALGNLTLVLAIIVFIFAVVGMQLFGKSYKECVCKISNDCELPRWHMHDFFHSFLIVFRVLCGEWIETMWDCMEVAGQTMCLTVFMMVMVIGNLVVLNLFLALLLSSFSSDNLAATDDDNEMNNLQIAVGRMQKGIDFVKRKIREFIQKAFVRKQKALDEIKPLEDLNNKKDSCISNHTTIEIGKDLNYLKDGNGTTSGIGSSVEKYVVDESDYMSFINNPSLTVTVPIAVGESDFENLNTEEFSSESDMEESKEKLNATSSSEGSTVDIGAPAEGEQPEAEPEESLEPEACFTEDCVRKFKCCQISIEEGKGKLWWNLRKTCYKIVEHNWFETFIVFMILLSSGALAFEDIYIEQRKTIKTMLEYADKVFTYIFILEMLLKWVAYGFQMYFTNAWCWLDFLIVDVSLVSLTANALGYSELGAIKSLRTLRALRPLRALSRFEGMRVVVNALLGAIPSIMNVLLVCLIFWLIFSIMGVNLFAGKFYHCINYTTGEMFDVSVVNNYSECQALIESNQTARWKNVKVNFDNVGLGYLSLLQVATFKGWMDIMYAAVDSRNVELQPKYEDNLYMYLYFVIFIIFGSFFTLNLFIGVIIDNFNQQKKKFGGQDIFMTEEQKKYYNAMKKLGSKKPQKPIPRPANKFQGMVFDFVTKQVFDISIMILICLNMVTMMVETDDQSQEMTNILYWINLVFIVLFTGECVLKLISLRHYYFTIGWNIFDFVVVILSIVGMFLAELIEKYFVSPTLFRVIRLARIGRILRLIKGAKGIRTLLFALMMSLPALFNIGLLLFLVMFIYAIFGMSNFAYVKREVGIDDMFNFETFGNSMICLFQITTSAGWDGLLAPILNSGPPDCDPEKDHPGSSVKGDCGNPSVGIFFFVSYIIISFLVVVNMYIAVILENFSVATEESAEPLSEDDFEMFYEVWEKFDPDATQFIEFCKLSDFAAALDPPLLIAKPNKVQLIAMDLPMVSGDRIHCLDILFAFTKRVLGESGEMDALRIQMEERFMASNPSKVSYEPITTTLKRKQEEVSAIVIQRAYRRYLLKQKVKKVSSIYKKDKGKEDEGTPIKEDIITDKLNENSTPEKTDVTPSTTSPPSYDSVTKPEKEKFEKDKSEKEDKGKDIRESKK

[6] = target: NaV1.6 (Homo sapiens, UniProt Q9UQD0); experiment: Whole-cell patch-clamp, HEK cells transiently transfected with NaV1.6; assay type: cell-based; conditions: IC50 NaV1.6, holding potential −80 mV, inter-pulse interval 10 s (0.1 Hz)
Chain of NaV1.6 (Q9UQD0 whole entry): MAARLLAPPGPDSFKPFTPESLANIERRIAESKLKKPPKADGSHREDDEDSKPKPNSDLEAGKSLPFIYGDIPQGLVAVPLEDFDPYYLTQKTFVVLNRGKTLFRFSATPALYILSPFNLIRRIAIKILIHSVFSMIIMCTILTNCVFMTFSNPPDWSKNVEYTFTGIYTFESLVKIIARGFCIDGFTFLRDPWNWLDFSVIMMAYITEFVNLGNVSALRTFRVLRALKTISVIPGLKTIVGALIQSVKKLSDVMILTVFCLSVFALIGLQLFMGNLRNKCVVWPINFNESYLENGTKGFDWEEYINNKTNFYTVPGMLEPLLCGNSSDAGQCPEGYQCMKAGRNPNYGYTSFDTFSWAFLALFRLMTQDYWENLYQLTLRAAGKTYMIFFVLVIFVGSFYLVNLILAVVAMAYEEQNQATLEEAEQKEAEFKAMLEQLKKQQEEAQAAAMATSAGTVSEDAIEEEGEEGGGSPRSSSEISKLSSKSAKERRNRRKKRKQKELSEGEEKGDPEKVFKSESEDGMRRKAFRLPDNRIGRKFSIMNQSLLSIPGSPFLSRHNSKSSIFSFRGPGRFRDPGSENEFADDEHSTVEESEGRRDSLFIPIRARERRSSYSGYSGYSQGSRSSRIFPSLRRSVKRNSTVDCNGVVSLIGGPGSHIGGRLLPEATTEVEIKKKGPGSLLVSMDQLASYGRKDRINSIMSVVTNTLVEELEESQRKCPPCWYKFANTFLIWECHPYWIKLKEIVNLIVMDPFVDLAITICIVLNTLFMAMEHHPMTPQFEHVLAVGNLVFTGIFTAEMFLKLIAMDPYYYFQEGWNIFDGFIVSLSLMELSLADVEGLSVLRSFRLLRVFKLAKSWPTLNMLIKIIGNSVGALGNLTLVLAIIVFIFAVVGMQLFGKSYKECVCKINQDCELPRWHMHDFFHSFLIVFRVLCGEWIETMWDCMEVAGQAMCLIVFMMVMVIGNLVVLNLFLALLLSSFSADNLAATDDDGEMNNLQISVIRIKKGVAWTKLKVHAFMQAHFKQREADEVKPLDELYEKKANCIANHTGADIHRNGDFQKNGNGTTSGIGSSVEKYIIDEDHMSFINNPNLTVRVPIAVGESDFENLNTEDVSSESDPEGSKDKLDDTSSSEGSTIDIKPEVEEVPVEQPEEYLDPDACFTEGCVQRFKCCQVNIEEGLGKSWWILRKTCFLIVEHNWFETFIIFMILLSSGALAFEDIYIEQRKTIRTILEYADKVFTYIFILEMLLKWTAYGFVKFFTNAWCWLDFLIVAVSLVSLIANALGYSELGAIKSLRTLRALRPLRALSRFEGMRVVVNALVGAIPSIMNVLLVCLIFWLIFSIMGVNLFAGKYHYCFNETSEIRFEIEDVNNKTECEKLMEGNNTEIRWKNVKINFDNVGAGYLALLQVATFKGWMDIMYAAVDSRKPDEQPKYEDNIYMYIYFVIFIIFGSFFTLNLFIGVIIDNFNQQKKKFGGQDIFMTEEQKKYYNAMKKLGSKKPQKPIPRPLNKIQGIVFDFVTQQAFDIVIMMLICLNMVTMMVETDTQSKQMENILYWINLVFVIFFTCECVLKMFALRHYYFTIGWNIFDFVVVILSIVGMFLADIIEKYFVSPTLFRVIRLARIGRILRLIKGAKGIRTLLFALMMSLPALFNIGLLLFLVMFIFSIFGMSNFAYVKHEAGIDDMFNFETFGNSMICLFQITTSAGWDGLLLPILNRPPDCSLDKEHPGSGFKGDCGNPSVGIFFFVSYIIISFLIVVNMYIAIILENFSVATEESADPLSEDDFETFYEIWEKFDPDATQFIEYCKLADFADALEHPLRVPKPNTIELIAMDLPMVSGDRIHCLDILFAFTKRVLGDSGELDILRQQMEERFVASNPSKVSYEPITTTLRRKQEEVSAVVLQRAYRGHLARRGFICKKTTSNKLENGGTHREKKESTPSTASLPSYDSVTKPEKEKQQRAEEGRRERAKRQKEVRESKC

[7] = assay type: in vivo; conditions: rat; for Oral availability / bioavailability: gavage vs i.p.
[8] = system: Ca2+-activated K+ channels; conditions: ref Sankaranarayanan et al., 2009; cited from earlier work
[9] = system: Ca2+-independent (low affinity) MeAIB transport in mature rat hippocampal neurons; assay type: cell-based; conditions: at 15 min of uptake
[10] = 30 mg/kg i.p. 1 h and 4 h after SE, then once/day for 2 d

logP [2]: 4.76
fraction unbound [3]: 0.005
Structure (SMILES): Nc1nc(-c2cccc3ccccc23)c(Br)s1 [SKA-219, 5-Bromo-4-(naphthalen-1-yl)thiazol-2-amine]
Block of activity regulated MeAIB transport, screen 2 [1]: > 95%

logP [2]: 4.14
Structure (SMILES): Nc1nc(-c2ccc3ccccc3c2)c(F)s1 [SKA-382, 5-Fluoro-4-(naphthalen-2-yl)thiazol-2-amine]

logP [2]: 5.25
Structure (SMILES): Cc1ccc(-c2nc(N)sc2Br)c2ccccc12 [SKA-375, 5-Bromo-4-(4-methylnaphthalen-1-yl)thiazol-2-amine]

IC50 ([1]; 15 min uptake): 4.3 ± 0.4 µM
logP [2]: 4.53
fraction unbound [3]: 0.015
Structure (SMILES): Nc1nc(-c2ccc(OC(F)(F)F)cc2)c(Cl)s1 [SKA-376, 5-Chloro-4-(4-(trifluoromethoxy)phenyl)thiazol-2-amine]
Hippocampal neural injury by FJB staining and NeuN fluorescence at 3 d [4, 10]: did not significantly reduce neural injury

Structure (SMILES): COc1ccc(CCN(C)CCCC(C#N)(c2ccc(OC)c(OC)c2)C(C)C)cc1OC (stereo not drawn) [verapamil, reference compound]
Spontaneous MeAIB transport after 15 min in presence of inhibitor [1]: 119 ± 9 pmol/well

IC50 ([1]; 15 min uptake): 0.86 ± 0.02 µM
Frequency dependence of NaV1.2 block [5]: not frequency dependent
IC50 [6]: 115 ± 2 µM
Behaviour of rats at higher doses ([4]; e.g., 30 mg/kg): render rats immobile and unresponsive
Structure (SMILES): Nc1nc2ccc(OC(F)(F)F)cc2s1 [Riluzole, reference compound]
Mode of inhibition of Ca2+-regulated MeAIB transport [1]: noncompetitive
Reduction of initial velocity (V, Vmax) of MeAIB transport [1]: ~ 50%
Vmax of Ca2+-regulated MeAIB transport in presence of inhibitor [1]: 54 ± 1 pmol/min
Spontaneous MeAIB transport after 15 min in presence of inhibitor ([1]; riluzole 10 μM, 23.4 μM 14C-MeAIB, total without inhibitor 619±21): 133 ± 8 pmol/well
Neuroprotection, FJB staining in hippocampus at 3 d ([4]; then once/day for 2 d): prevents acute neural injury altogether
Behaviour of rats after treatment ([4]; 10 mg/kg post-SE): relatively immobile/sedated
Duration of KA-induced SE events ([4]; 10 mg/kg post-SE, untreated 4–6 h): less than 2 h
Neural injury in hippocampal limbic areas ([4]; post-treated): largely prevented neural injury

logP [2]: 4.58
fraction unbound [3]: 0.043
Brain penetration [7]: excellent
Oral availability / bioavailability [7]: excellent
Structure (SMILES): Nc1nc(-c2ccc(OC(F)(F)F)cc2)cs1 [SKA-41, 4-(4-(Trifluoromethoxy)phenyl)thiazol-2-amine]
Neuroprotection, FJB staining in hippocampus at 3 d ([4]; then once/day for 2 d): neuro-protective, but not as protective as riluzole
Activity on Ca2+-activated K+ channels [8]: inactive

IC50 ([1]; 15 min uptake): 6.5 ± 0.25 µM
logP [2]: 4.42
Structure (SMILES): Nc1nc(-c2ccc3ccccc3c2)c(Cl)s1 [SKA-379, 5-Chloro-4-(naphthalen-2-yl)thiazol-2-amine]
Neuroprotection, FJB staining in hippocampus at 3 d ([4]; then once/day for 2 d): neuro-protective, but not as protective as riluzole
Hippocampal neural injury by FJB staining and NeuN fluorescence at 3 d [4, 10]: neuroprotective

IC50 ([1]; 15 min uptake): 4.5 ± 0.45 µM
logP [2]: 4.05
Structure (SMILES): Nc1nc(-c2cccc3ccccc23)cs1 [SKA-75, 4-(Naphthalen-1-yl)thiazol-2-amine]
Block of activity regulated MeAIB transport, screen 2 [1]: ~ 50%

logP [2]: 4.42
Structure (SMILES): Nc1nc(-c2ccc3ccccc3c2)c(Br)s1 [SKA-220, 5-Bromo-4-(naphthalen-2-yl)thiazol-2-amine]
Result of screen 2 (block of MeAIB transport) [1]: active

IC50 ([1]; 15 min uptake): 1.1 ± 0.17 µM
IC50 [6]: 28 µM and ~28 µM
logP [2]: 4.2
fraction unbound [3]: 0.008
Brain penetration [7]: excellent
Structure (SMILES): Nc1nc(-c2cccc3ccccc23)c(Cl)s1 [SKA-378, 5-Chloro-4-(naphthalen-1-yl)thiazol-2-amine]
Mode of inhibition of Ca2+-regulated MeAIB transport [1]: noncompetitive
Reduction of initial velocity (V, Vmax) of MeAIB transport [1]: ~ 50%
Vmax of Ca2+-regulated MeAIB transport in presence of inhibitor [1]: 73 ± 6 pmol/min
Neuroprotection, FJB staining in hippocampus at 3 d ([4]; then once/day for 2 d): neuro-protective, but not as protective as riluzole
FJB staining in hippocampal CA1-4 neurons at 3 d [4, 10]: minimal
NeuN fluorescence in pyramidal neuron subfields at 3 d [4, 10]: largely prevents the diminished NeuN fluorescence
Rats still exhibiting maximal stage 5 seizures (Racine scale) ([4]; 30 mg/kg i.p. given before KA (pretreatment)): > 50%
FJB staining, hippocampal CA pyramidal neuron layers at 3 d ([4]; 30 mg/kg i.p. pretreatment): blocks neuronal hippocampal injury
NeuN fluorescent intensity in CA4, CA3, CA1 at 3 d ([4]; 30 mg/kg i.p. pretreatment): nearly identical to sham levels
Seizure severity vs non-treated KA-injected rats ([4]; 30 mg/kg i.p. pretreatment): did not show a significant reduction in seizure severity
Duration of KA-induced SE events ([4]; 30 mg/kg post-SE): not affected

Km ([1]; read-out: Km for spontaneous Ca2+-dependent MeAIB transport, Michaelis-Menten analysis, 15 min uptake): 61 ± 5 µM
Structure (SMILES): CNC(C)(C)C(=O)O [MeAIB, methylaminoisobutryic acid, reference compound]
Vmax of Ca2+-dependent MeAIB transport ([1]; at 15 min of uptake): 1605 ± 139 pmol/well
Vmax of Ca2+-independent MeAIB transport [9]: 1793 ± 131 pmol/well

IC50 ([1]; 15 min uptake): 6.2 ± 0.9 µM
logP [2]: 4.05
Structure (SMILES): Nc1nc(-c2ccc3ccccc3c2)cs1 [SKA-76, 4-(Naphthalen-2-yl)thiazol-2-amine]
Block of activity regulated MeAIB transport, screen 2 [1]: ~ 50%

logP [2]: 4.53
Structure (SMILES): Cc1ccc(-c2csc(N)n2)c2ccccc12 [SKA-190, 4-(4-Methylnaphthalen-1-yl)thiazol-2-amine]
Result of screen 2 (block of MeAIB transport) [1]: active

logP [2]: 4.91
fraction unbound [3]: 0.01
Oral availability / bioavailability [7]: excellent oral availability
Structure (SMILES): Cc1ccc(-c2nc(N)sc2Cl)c2ccccc12 [SKA-377, 5-Chloro-4-(4-methylnaphthalen-1-yl)thiazol-2-amine]
Neuroprotection, FJB staining in hippocampus at 3 d ([4]; then once/day for 2 d): neuro-protective, but not as protective as riluzole
Hippocampal neural injury by FJB staining and NeuN fluorescence at 3 d [4, 10]: neuroprotective
